Where “and” joins values, the source holds several entries; their conditions need not be identical. Equal values may be shown once. Read-outs that look alike come from different tables or passages of the source.
Tests used:
[1] = tested on: caspase 9; assay: Caspase activity, luminescent kit, caspase 9; assay type: cell-based, human; settings: for kaspáza 9, raw signal / kaspáza 9, signal / viabilita: individual experiments by date; for kaspáza 9, raw signal, průměry / kaspáza 9, % kontroly / kaspáza 9, signal / viabilita, průměry: mean; for kaspáza 9, % kontroly / kaspáza 9, signal / viabilita / kaspáza 9, signal / viabilita, průměry: normalised to viability
Description: (§1) To assess the effect of the compounds on caspase activity, MCF-7 cells were incubated with 100 nM Bp4eT or its metabolites for 3, 24 or 72 h/37°C in 96-well plates, as described above. The cells were then lysed by adding 100 μL of cold lysis buffer (100 mM HEPES, 10 mM CHAPS, 10 mM D-L-dithiothreitol, pH 7.4) to 100 μL of medium in each well. Lysates were immediately frozen at -80°C. Thawed lysates were used to assess caspase activity using luminescent kits for caspases 3/7, 8 and 9 (Promega, Madison, WI, USA). The luminescence was measured using the Tecan Infinite 200M plate reader. Caspase activity in the experimental groups was corrected according to the cellular viability of each group and expressed as a percentage of activity of the untreated control (100%).

[2] = tested on: HL-60 human promyelocytic leukemia cells; assay: MTT cytotoxicity assay, HL-60 cells; assay type: cell-based; settings: for IC50: MTT, read-out: IC50
Description: For cytotoxicity experiments, cancer cells were seeded at a density of 5,000 (MCF-7), 10,000 (HL-60) or 2,000 cells/well (HCT116 and A549) in 96-well plates (TPP) for 24 h/37°C prior to the addition of examined agents. The non-cancerous cells, 3T3 and H9c2 cells, were cultured for 24 h/37°C in 96-well plates at a density of 10,000 cells/well, the medium was then changed to serum- and pyruvate-free DMEM (Sigma-Aldrich) and incubated with the cells for another 24 h/37°C. The cytotoxic effects of Bp4eT and its metabolites were studied at different concentrations after a 72 h/37°C incubation. In order to aid the dissolution of the lipophilic ligands, 0.1% dimethyl sulfoxide (v/v) (DMSO; Sigma-Aldrich) was present in the culture medium of all groups. At this concentration, DMSO had no effect on cellular proliferation or viability.
The viability of cells were determined using an MTT assay (Sigma-Aldrich) according to previously established methods. The optical density of soluble MTT was measured at λ = 570 nm, subtracting the λ = 690 nm background using a Tecan Infinite 200M plate reader (Tecan Group, Männedorf, Switzerland). The viability or proliferation of experimental groups was expressed as a percentage of the untreated controls (100%).
SigmaStat for Windows 3.5 (Systat Software, San Jose, CA, USA) statistical software package was utilized to analyze results. The data are expressed as the mean ± SD of a given number of experiments. Statistical significance was determined using a one-way ANOVA with a Bonferroni post-hoc test or Student’s t-test. The results were considered to be statistically significant when p < 0.05. The IC50 values were calculated using CalcuSyn 2.0 software (Biosoft, Cambridge, UK). Cell cycle analysis was evaluated using MultiCycle AV Software (Phoenix Flow Systems, San Diego, CA, USA).

[3] = tested on: caspase 8; assay: Caspase activity, luminescent kit, caspase 8; assay type: cell-based, human; settings: for kaspáza 8, raw signal / kaspáza 8, signal / viabilita: individual experiments by date; for kaspáza 8, raw signal, průměry / kaspáza 8, % kontroly / kaspáza 8, signal / viabilita, průměry: mean; for kaspáza 8, % kontroly / kaspáza 8, signal / viabilita / kaspáza 8, signal / viabilita, průměry: normalised to viability
Description: as §1

[4] = tested on: MCF-7 cells; assay: Cellular 59Fe uptake from 59Fe2-transferrin; assay type: cell-based, human; design: key to Uptake 59Fe, Ave / Uptake 59Fe: % of internalized 59Fe in untreated control cells
From the text: Human transferrin (Sigma) was labeled with ^56Fe or ^59Fe (PerkinElmer, Massachusetts, USA) to produce ^56Fe2-transferrin or ^59Fe2-transferrin (^59Fe2-Tf), respectively, with a final specific activity of 500 pCi/pmol Fe, as previously described. Unbound ^59Fe was removed by exhaustive vacuum dialysis against a large excess of 0.15 M NaCl buffered to pH 7.4 with 1.4% NaHCO3 by standard methods.
The ability of the chelators to prevent cellular ^59Fe uptake from ^59Fe2-transferrin was examined using standard techniques. In brief, confluent MCF-7 cells in 6-well plates were incubated with 0.75 μM ^59Fe2-Tf for 3 h/37°C in the presence of Bp4eT or its metabolites (25 μM). The cells were then washed four times with ice-cold PBS and the level of internalized ^59Fe was determined by incubating the cell monolayer for 30 min/4°C with the general protease, Pronase (1 mg/mL; Sigma-Aldrich). The cells were then removed from the monolayer with a plastic spatula on ice and centrifuged for 1 min/12,000 x g/4°C. The supernatant represents membrane-bound, Pronase-sensitive ^59Fe that was released by the protease, while the Pronase-insensitive fraction represents internalized ^59Fe. The amount of internalized ^59Fe was expressed as a percentage of ^59Fe internalized by control (untreated) cells.

`CCN=CNN=C(c1ccccc1)c1ccccn1` [Bp4eA, N ^3-ethyl-N ^1-[phenyl(pyridin-2-yl)methylene]formamidrazone] was tested, and the “kaspáza 9, raw signal” value ([1]; 3 hodiny) was 5948 and 2664.5 and 3083.5 and 2163.5, the “kaspáza 9, raw signal, průměry” value ([1]; 3 hodiny) was 3464.88 and the “kaspáza 9, % kontroly” value ([1]; 3 hodiny) was 101.76 % kontroly. For the same compound, the “kaspáza 9, signal / viabilita” value ([1]; 3 hodiny) was 61.4437 and 27.5247 and 31.853 and 22.3493, the “kaspáza 9, signal / viabilita, průměry” value ([1]; 3 hodiny) was 35.7927 and the “kaspáza 9, raw signal” value ([1]; 24 hodin) was 4444 and 2960 and 4885.5 and 3130. For the same compound, the “kaspáza 9, raw signal, průměry” value ([1]; 24 hodin) was 3854.88, the “kaspáza 9, % kontroly” value ([1]; 24 hodin) was 99.64 % kontroly and the “kaspáza 9, signal / viabilita” value ([1]; 24 hodin) was 46.4885 and 30.9645 and 51.1071 and 32.7428. For the same compound, the “kaspáza 9, signal / viabilita, průměry” value ([1]; 24 hodin) was 40.3257, the “kaspáza 9, raw signal” value ([1]; 72 hodin) was 22564 and 18032 and 23775.5 and 21453 and the “kaspáza 9, raw signal, průměry” value ([1]; 72 hodin) was 21456.1. The “kaspáza 9, % kontroly” value ([1]; 72 hodin) was 106.51 % kontroly, the “kaspáza 9, signal / viabilita” value ([1]; 72 hodin) was 242.519 and 193.809 and 255.541 and 230.578 and the “kaspáza 9, signal / viabilita, průměry” value ([1]; 72 hodin) was 230.612. For the same compound, the “Therapeutic index, IC50 non-cancerous cells / IC50 neoplastic cells” value ([2]; 3T3/HL-60) was 19.7, the “Therapeutic index, IC50 non-cancerous cells / IC50 neoplastic cells” value ([2]; H9c2/HL-60) was 8.0 and the “MTT, relative to control (0 = 100)” value ([2]; HL-60, 10 000 b/j, 3 μM, průměr (mean), sheet Bp4eA) was 96.31. For the same compound, the “MTT, relative to control (0 = 100)” value ([2]; HL-60, 10 000 b/j, 3 μM, single experiment (date), sheet Bp4eA) was 98.9707 and 95.9296 and 99.8753 and 90.4839, the “MTT, relative to control (0 = 100)” value ([2]; HL-60, 10 000 b/j, 10 μM, průměr (mean), sheet Bp4eA) was 96.62 and the “MTT, relative to control (0 = 100)” value ([2]; HL-60, 10 000 b/j, 10 μM, single experiment (date), sheet Bp4eA) was 97.2125 and 99.0002 and 94.4459 and 95.8253. For the same compound, the “MTT, relative to control (0 = 100)” value ([2]; HL-60, 10 000 b/j, 30 μM, průměr (mean), sheet Bp4eA) was 83.43, the “MTT, relative to control (0 = 100)” value ([2]; HL-60, 10 000 b/j, 30 μM, single experiment (date), sheet Bp4eA) was 80.8819 and 83.0208 and 86.8317 and 82.995 and the “MTT, relative to control (0 = 100)” value ([2]; HL-60, 10 000 b/j, 50 μM, průměr (mean), sheet Bp4eA) was 62.90. The “MTT, relative to control (0 = 100)” value ([2]; HL-60, 10 000 b/j, 50 μM, single experiment (date), sheet Bp4eA) was 62.3054 and 62.5036 and 62.1604 and 64.6299, the “MTT, relative to control (0 = 100)” value ([2]; HL-60, 10 000 b/j, 80 μM, průměr (mean), sheet Bp4eA) was 16.51 and the “MTT, relative to control (0 = 100)” value ([2]; HL-60, 10 000 b/j, 100 μM, průměr (mean), sheet Bp4eA) was 1.77. The “MTT, relative to control (0 = 100)” value ([2]; HL-60, 10 000 b/j, 300 μM, průměr (mean), sheet Bp4eA) was 1.66, the IC50 ([2]; HL-60, 10 000 b/j, single experiment (date), sheet Bp4eA) was 51 µM and 54.1 µM and 55.3 µM and the IC50 ([2]; Homo sapiens, HL-60, 72 h, HL-60, 72 h/37°C, mean ± SD, n ≥ 4) was 52.1 ± 3.3 µM. For the same compound, the IC50 ([2]; Homo sapiens, HL-60, HL-60, 10 000 b/j, průměr (mean), sheet Bp4eA) was 52.1 µM, the IC50 ([2]; Homo sapiens, HL-60, HL-60, 10 000 b/j, single experiment (date), sheet Bp4eA) was 47.9 µM and the “kaspáza 8, raw signal” value ([3]; 3 hodiny) was 2039 and 1218.5 and 1153 and 868.5. The “kaspáza 8, raw signal, průměry” value ([3]; 3 hodiny) was 1319.75, the “kaspáza 8, % kontroly” value ([3]; 3 hodiny) was 98.01 % kontroly and the “kaspáza 8, signal / viabilita” value ([3]; 3 hodiny) was 21.0632 and 12.5873 and 11.9107 and 8.972. For the same compound, the “kaspáza 8, signal / viabilita, průměry” value ([3]; 3 hodiny) was 13.6332, the “kaspáza 8, raw signal” value ([3]; 24 hodin) was 1556 and 1108.5 and 1675.5 and 1199 and the “kaspáza 8, raw signal, průměry” value ([3]; 24 hodin) was 1384.75. For the same compound, the “kaspáza 8, % kontroly” value ([3]; 24 hodin) was 91.04 % kontroly, the “kaspáza 8, signal / viabilita” value ([3]; 24 hodin) was 16.2773 and 11.596 and 17.5273 and 12.5427 and the “kaspáza 8, signal / viabilita, průměry” value ([3]; 24 hodin) was 14.4858. The “kaspáza 8, raw signal” value ([3]; 72 hodin) was 6752 and 5806 and 7204 and 6996, the “kaspáza 8, raw signal, průměry” value ([3]; 72 hodin) was 6689.5 and the “kaspáza 8, % kontroly” value ([3]; 72 hodin) was 103.53 % kontroly. The “kaspáza 8, signal / viabilita” value ([3]; 72 hodin) was 72.5709 and 62.4033 and 77.4291 and 75.1935, the “kaspáza 8, signal / viabilita, průměry” value ([3]; 72 hodin) was 71.8992 and the “Internalized 59Fe uptake, % of the control” value ([4]; 25 μM, 3 h/37°C, MCF-7, 0.75 μM 59Fe2-Tf) was “comparable to the untreated control”. For the same compound, the “Uptake 59Fe, Ave” value ([4]; average of all replicates, Control Ave = 100) was 93.4629 and the “Uptake 59Fe” value ([4]; single replicate (three per date), Control Ave = 100) was 92.0297 and 96.1364 and 98.7564 and 74.0112 and 96.1871 and 80.6939 and 103.039 and 106.85.

— PMC4604124, “In Vitro Characterization of the Pharmacological Properties of the Anti-Cancer Chelator, Bp4eT, and Its Phase I Metabolites” (PLoS ONE, 2015)
